Test results: patent US20230084927A1, “GLUCOSE UPTAKE INHIBITORS AND USES THEREOF” (METABOMED LTD., priority 2019, published 2023)
pEC50: −log10 of the molar value. Read-outs that look alike come from different tables or passages of the source.

What was measured:
[1] = test system: SDH-KO-HRAS cells (SDHB-deficient); test: Cellular / differential toxicity assay (CellTiter-Glo, 3 days); type: cell-based, murine; settings: for pEC50: 72 hours
Outline: (§1)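 Isogenic SDHB-deficient (HRAS-transformed SDH-KO) and SDH-WT cells grown in DMEM-F12 with 1 mM glutamine and 3% FBS, plated with compound (10-point dilution from 10 uM to 0.0065 uM or lower) for 3 days at 37 °C, 5% CO2. Viability by CellTiter-Glo luminescence; EC50 calculated.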

[2] = test system: SDH-WT cells; test: as above; type: cell-based, murine; settings: for pEC50: 72 hours
Outline: as §1

SMILES: CC1(C)Cc2nc3sc4c(NCCc5ccc6[nH]cnc6c5)ncnc4c3cc2CO1 [Compound 145]
- Ratio BAY-876/COMP 145 ([1]; Murine SDH-KO): 0.8
- pEC50 ([1]; Mus musculus, 72 h, Murine SDH-KO, transformed, Example 8, read-out: EC50): 8.92
- pEC50 ([1]; Mus musculus, 72 h, SDH-KO cells, Example 7, read-out: EC50 Tox): 8.74
- EC50 ([1]; Mus musculus, 72 h, toxicity, SDH-KO cells, 3 days, CellTiter-Glo, read-out: EC50 (uM) SDH-KO-HTAS-C17): < 1 µM
- differential effect between SDH-WT and KO cells (EC50 Tox) ([1]; cell viability, Example 7): around 80 folds
- Ratio BAY-876/COMP 145 ([2]; Murine SDH-WT): 0.4
- pEC50 ([2]; Mus musculus, 72 h, Murine SDH-WT, transformed, Example 8, read-out: EC50): 6.47
- pEC50 ([2]; Mus musculus, 72 h, SDH-WT cells, Example 7, read-out: EC50 Tox): 6.86
- EC50 ([2]; Mus musculus, 72 h, toxicity, SDH-WT cells, 3 days, CellTiter-Glo, read-out: EC50 (uM) SDH-WT): < 1 µM
